Data on two molecules can be found in patent US8999940B2 (Ipsen Pharma S.A.S., priority 2008, dated 2015).

A short description of data set [1]: Rat plasma half-life assay. It is filed as in vitro ADME. The settings on record: 37° C., LC-MS, read-out: Rat Plasma T½ (converted).
Data set [2] is described as follows: Human plasma half-life assay. It is filed as in vitro ADME. The settings on record: 37° C., LC-MS, read-out: Human Plasma T½ (converted).
Data set [3] concerns the target T1, human recombinant GIP receptor (Homo sapiens, UniProt P48546).
T1 construct: expressed in transfected cells; host or cells: CHO-K1 clonal cells (membrane preparation)
T1 sequence (P48546 22-466): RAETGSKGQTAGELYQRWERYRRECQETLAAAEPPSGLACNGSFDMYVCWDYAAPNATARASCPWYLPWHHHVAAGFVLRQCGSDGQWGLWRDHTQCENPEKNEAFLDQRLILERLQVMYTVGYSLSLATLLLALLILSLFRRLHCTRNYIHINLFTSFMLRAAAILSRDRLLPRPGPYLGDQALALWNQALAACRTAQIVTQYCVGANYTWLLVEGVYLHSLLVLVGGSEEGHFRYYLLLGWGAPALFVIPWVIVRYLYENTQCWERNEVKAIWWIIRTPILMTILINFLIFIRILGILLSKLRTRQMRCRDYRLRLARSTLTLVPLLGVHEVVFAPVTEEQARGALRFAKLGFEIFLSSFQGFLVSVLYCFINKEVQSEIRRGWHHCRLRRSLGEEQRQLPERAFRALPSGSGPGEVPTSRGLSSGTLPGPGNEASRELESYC
Put plainly: In vitro hGIP receptor binding assay. The procedure:
A. In Vitro hGIP Receptor Binding Assay […] The incubations were terminated by rapid filtration through GF/C filters (pre-soaked in 0.5% polyethylenimine) using a Brandel filtration manifold. Each tube and filter were then washed three times with 5-ml aliquots of ice-cold buffer.

Consider `CC[C@H](C)[C@H](NC(=O)[C@H](CCCCN)NC(=O)[C@H](CC(=O)O)NC(=O)[C@H](CCSC)NC(=O)[C@H](C)NC(=O)[C@@H](NC(=O)C1(NC(=O)[C@H](Cc2ccc(O)cc2)NC(=O)[C@H](CC(=O)O)NC(=O)[C@H](CO)NC(=O)[C@@H](NC(=O)[C@H](Cc2ccccc2)NC(=O)[C@@H](NC(=O)CNC(=O)[C@H](CCC(=O)O)NC(=O)C(C)(C)NC(=O)[C@@H](N)Cc2c(C)cc(O)cc2C)[C@@H](C)O)[C@@H](C)CC)CCCC1)[C@@H](C)CC)C(=O)N[C@@H](Cc1c[nH]cn1)C(=O)N[C@@H](CCC(N)=O)C(=O)N[C@@H](CCC(N)=O)C(=O)N[C@@H](CC(=O)O)C(=O)N[C@@H](Cc1ccccc1)C(=O)N[C@H](C(=O)N[C@@H](CC(N)=O)C(=O)N[C@@H](Cc1c[nH]c2ccccc12)C(=O)N[C@@H](CC(C)C)C(=O)N[C@@H](CC(C)C)C(=O)N[C@@H](C)C(=O)N[C@@H](CCC(N)=O)C(=O)N[C@@H](CCCCN)C(=O)NCC(=O)N[C@@H](CCCCN)C(=O)N[C@@H](CCCCN)C(=O)N[C@@H](CC(N)=O)C(=O)N[C@@H](CC(=O)O)C(=O)N[C@@H](Cc1c[nH]c2ccccc12)C(=O)N[C@@H](CCCCN)C(=O)N[C@@H](Cc1c[nH]cn1)C(=O)N[C@@H](CC(N)=O)C(=O)N[C@H](C(=O)N[C@H](C(=O)N[C@@H](CCC(N)=O)C(=O)N[C@@H](Cc1c[nH]cn1)C(=O)O)[C@@H](C)O)[C@@H](C)CC)C(C)C` [Example 53, (2,6Me-Tyr^1, Aib^2, A5c^11, His^43)hGIP(1-43)-OH], for which the half-life at 0.1 mg/ml is 23.2 h in data set [1] and 20 h in data set [2]. Besides, the Ki in data set [3] was 0.035 µM.

For the molecule `CCCC[C@H](NC(=O)C(C)(C)NC(=O)[C@@H](NC(=O)[C@H](CO)NC(=O)[C@H](Cc1ccc(O)cc1)NC(=O)[C@H](CC(=O)O)NC(=O)[C@H](CO)NC(=O)[C@@H](NC(=O)[C@H](Cc1ccccc1)NC(=O)[C@@H](NC(=O)CNC(=O)[C@H](CCC(=O)O)NC(=O)C(C)(C)NC(=O)[C@@H](N)Cc1c[nH]cn1)[C@@H](C)O)[C@@H](C)CC)[C@@H](C)CC)C(=O)N[C@@H](CC(=O)O)C(=O)N[C@@H](CCCCN)C(=O)N[C@H](C(=O)N[C@@H](Cc1c[nH]cn1)C(=O)N[C@@H](CCC(N)=O)C(=O)N[C@@H](CCC(N)=O)C(=O)N[C@@H](CC(=O)O)C(=O)N[C@@H](Cc1ccccc1)C(=O)N[C@H](C(=O)N[C@@H](CC(N)=O)C(=O)N[C@@H](Cc1c[nH]c2ccccc12)C(=O)N[C@@H](CC(C)C)C(=O)N[C@@H](CC(C)C)C(=O)N[C@@H](C)C(=O)N[C@@H](CCC(N)=O)C(=O)N[C@@H](CCCCN)C(=O)NCC(=O)N[C@@H](CCCCN)C(=O)N[C@@H](CCCCN)C(=O)N[C@@H](CC(N)=O)C(=O)N[C@@H](CC(=O)O)C(=O)N[C@@H](Cc1c[nH]c2ccccc12)C(=O)N[C@@H](CCCCN)C(=O)N[C@@H](Cc1c[nH]cn1)C(=O)N[C@@H](CC(N)=O)C(=O)N[C@H](C(=O)N[C@H](C(=O)N[C@@H](CCC(N)=O)C(=O)O)[C@@H](C)O)[C@@H](C)CC)C(C)C)[C@@H](C)CC` [Example 10, (His^1, Aib^2, 13, Nle^14)hGIP(1-42)-OH], the half-life at 0.1 mg/ml in data set [1] is 9.2 h; in data set [2], 71.4 h. In data set [3], the Ki is 0.00333 µM.
